Results reported in the NIST ThermoML archive (doi:10.1016/j.jct.2013.09.001).

Key:
[1] = 101 kPa, Liquid; for viscosity: Concentric cylinders viscometry; for mass density: Vibrating tube method
[2] = xn = mol fraction of the nth substance listed; conditions: 101 kPa, Liquid; for viscosity: Concentric cylinders viscometry; for mass density: Vibrating tube method

CC(=O)[O-].CCCCn1cc[n+](C)c1 [1-butyl-3-methylimidazolium acetate]
[1]
Conditions | mass density [kg/m3] | viscosity [mPa·s]
293.15 K | 1056.1 | 549.9
303.15 K | 1049.6 | 257.4
313.15 K | 1043.5 | 135.5
323.15 K | 1037.4 | 78.4
333.15 K | 1031.3 | 49
343.15 K | 1025.4 | 32.5
353.15 K | – | 22.7

CC(=O)[O-].CCCCn1cc[n+](C)c1 [1-butyl-3-methylimidazolium acetate] + CN(CCO)CCO
[2]
Conditions | mass density, x2 = 0 [kg/m3] | mass density, x2 = 0.2 [kg/m3] | mass density, x2 = 0.4 [kg/m3] | mass density, x2 = 0.6 [kg/m3] | mass density, x2 = 0.8 [kg/m3] | viscosity, x2 = 0 [mPa·s] | viscosity, x2 = 0.2 [mPa·s] | viscosity, x2 = 0.4 [mPa·s] | viscosity, x2 = 0.6 [mPa·s] | viscosity, x2 = 0.8 [mPa·s]
293.15 K | 1056.1 | 1052.6 | 1049.5 | 1046 | 1043.4 | 549.9 | 369.6 | 254.3 | 164.4 | 117.9
303.15 K | 1049.6 | 1046.1 | 1043 | 1039.2 | 1036.4 | 257.4 | 188.9 | 139.8 | 94.9 | 68.9
313.15 K | 1043.5 | 1040.1 | 1037 | 1033.1 | 1029.8 | 135.5 | 106.6 | 83.2 | 58.8 | 43.1
323.15 K | 1037.4 | 1034.1 | 1030.9 | 1026.8 | 1023.1 | 78.4 | 65 | 52.9 | 38.7 | 28.4
333.15 K | 1031.3 | 1028.1 | 1024.7 | 1020.5 | 1016.4 | 49 | 42.3 | 35.6 | 26.7 | 19.7
343.15 K | 1025.4 | 1022.3 | 1018.8 | 1014.4 | 1009.8 | 32.5 | 29 | 25.1 | 19.3 | 14.2
353.15 K | – | – | – | – | – | 22.7 | 20.7 | 18.3 | 14.4 | 10.6

CC(=O)[O-].CCCCn1cc[n+](C)c1 [1-butyl-3-methylimidazolium acetate] + OCCNCCO
[2]
Conditions | mass density, x2 = 0 [kg/m3] | mass density, x2 = 0.2 [kg/m3] | mass density, x2 = 0.4 [kg/m3] | mass density, x2 = 0.6 [kg/m3] | mass density, x2 = 0.8 [kg/m3] | viscosity, x2 = 0 [mPa·s] | viscosity, x2 = 0.2 [mPa·s] | viscosity, x2 = 0.4 [mPa·s] | viscosity, x2 = 0.6 [mPa·s] | viscosity, x2 = 0.8 [mPa·s]
293.15 K | 1056.1 | 1058.7 | 1062.8 | 1068.8 | 1079.7 | 549.9 | 425 | 319.4 | 286.8 | 400.1
303.15 K | 1049.6 | 1052.2 | 1056.3 | 1062.3 | 1073.1 | 257.4 | 208.3 | 176.1 | 150.8 | 197
313.15 K | 1043.5 | 1046.2 | 1050.3 | 1056.2 | 1067 | 135.5 | 114 | 95.9 | 86.8 | 106.3
323.15 K | 1037.4 | 1040.1 | 1044.2 | 1050.2 | 1060.7 | 78.4 | 68.4 | 59.2 | 53.8 | 62.2
333.15 K | 1031.3 | 1034.1 | 1038.1 | 1044.1 | 1054.4 | 49 | 43.9 | 38.9 | 35.4 | 38.9
343.15 K | 1025.4 | 1028.2 | 1032.2 | 1038.1 | 1048.3 | 32.5 | 29.8 | 26.9 | 24.6 | 25.8
353.15 K | – | – | – | – | – | 22.7 | 21.3 | 19.4 | 17.8 | 17.9

CN(CCO)CCO [N-methyldiethanolamine]
[1]
Conditions | mass density [kg/m3] | viscosity [mPa·s]
293.15 K | 1040.6 | 103.3
303.15 K | 1032.8 | 57.3
313.15 K | 1025.4 | 34.1
323.15 K | 1017.8 | 21.6
333.15 K | 1010 | 14.3
343.15 K | 1002.3 | 9.9
353.15 K | – | 7.2

CN(CCO)CCO [N-methyldiethanolamine] + CC(=O)[O-].CCCCn1cc[n+](C)c1
[2], x1 = 1
Conditions | mass density [kg/m3] | viscosity [mPa·s]
293.15 K | 1040.6 | 103.3
303.15 K | 1032.8 | 57.3
313.15 K | 1025.4 | 34.1
323.15 K | 1017.8 | 21.6
333.15 K | 1010 | 14.3
343.15 K | 1002.3 | 9.9
353.15 K | – | 7.2

OCCNCCO [diethanolamine]
[1]
Conditions | mass density [kg/m3] | viscosity [mPa·s]
293.15 K | 1097.4 | –
303.15 K | 1090.5 | 386.6
313.15 K | 1083.9 | 189.7
323.15 K | 1077.1 | 101.2
333.15 K | 1070.3 | 57.9
343.15 K | 1063.5 | 35.3
353.15 K | – | 22.7

OCCNCCO [diethanolamine] + CC(=O)[O-].CCCCn1cc[n+](C)c1
[2], x1 = 1
Conditions | mass density [kg/m3] | viscosity [mPa·s]
293.15 K | 1097.4 | –
303.15 K | 1090.5 | 386.6
313.15 K | 1083.9 | 189.7
323.15 K | 1077.1 | 101.2
333.15 K | 1070.3 | 57.9
343.15 K | 1063.5 | 35.3
353.15 K | – | 22.7
